Assay results as given in patent publication US20240390335A1, “PHARMACEUTICAL COMPOSITION CONTAINING BETA-LACTAM COMPOUND AND USE THEREOF” (priority 2021, published 2024).

Test system: Klebsiella pneumoniae ATCC BAA2146 (NDM-1)
Assay: Protective effect on mice systemically infected (survival within 7 days)
Type: in vivo, ICR mice
Details: for Number of animals survived: 5 mice
Method: ICR mice (half male and half female) with healthy appearance and a weight of 18 to 22 g were used. The mice were randomly grouped, with 5 mice (either male or female) in each dose group.
To the mice infected intraperitoneally with NDM-1-producing Klebsiella pneumoniae (at a dose of 3.0×10^6 CFU), drugs were administered once through the tail vein at certain doses (see Table 5) at 1 h and 6 h respectively after the infection for a total of two administrations, with the volume of the drugs administered being 10 mL/kg. The survival of the animals in each group was observed within 7 days, and the survival rates of the mice were calculated. The control group was not given any drugs, and given only physiological saline, and the seven-day survival rate of the mice was 0.
The protective effects of the compound of formula (I-1) administered alone and in combination with avibactam on mice systemically infected with Klebsiella pneumoniae ATCC BAA2146 (NDM-1) are shown in Table 5.

[1] = individual compound 16 mg/kg i.v. (tail vein) at 1 h and 6 h after infection
[2] = individual compound 32 mg/kg i.v. (tail vein) at 1 h and 6 h after infection

`CC1(C)[C@H](NC(=O)/C(=N\OC2(C(=O)O)CC2)c2csc(N)n2)C(=O)N1OS(=O)(=O)O` [Compound of formula (I-1)] was tested, and the “Survival rate of animals (%)” value [1] was 20%, the “Number of animals survived” value [1] was 1 and the “Survival rate of animals (%)” value [2] was 60%. The “Number of animals survived” value [2] was 3.
